Here are results for eight compounds from publication PMC10458862, “Binding Specificity of a Novel Cyclo/Maltodextrin-Binding Protein and Its Role in the Cyclodextrin ABC Importer System from Thermoanaerobacterales” (Molecules, 2023).

Read-outs that look alike come from different tables or passages of the source. Marks after values point to notes of the source that are not given here.

The target of test [1] is T1, MdxE (Thermoanaerobacter mathranii subsp. mathranii, UniProt A0ABM5LRQ5). Description: ITC measurements of MdxE-ligand binding. Also on record: species or system Thermoanaerobacter mathranii subsp. mathranii A3. How it is done:
To assess the binding affinities of MdxE toward different linear dextrins and CDs for the CM-CD pathway, functional experiments of MdxE-ligand complex formation were performed using isothermal titration calorimetry (ITC) to determine the dissociation constant (Kd) and enthalpy (ΔH) for ligand binding, as well as the Gibbs free energy (ΔG) contribution to the binding (Figure 3).
Purified MdxE at 4 μM was titrated with 0.8 mM CDs and linear dextrins using a VP-ITC calorimeter (Cytiva) at 55 °C. In all measurements, the sample cell and syringe were filled with protein and ligand solution, respectively, and the reference cell was filled with ultrapure water. The stirring speed of the sample syringe during measurements was 250 rpm. After baseline stabilization and an initial injection of 2 µL, 25 successive injections of 11 µL were carried out with a 5 min equilibration period between injections. Since both protein and ligands were in buffer C, the heat of dilution was neglected in the experiments. The resulting data were analyzed in triplicate (n = 3) using the Origin 7 ITC analysis v7.0 software from Microcal by fitting the titration curves to a single binding site model.

Test [2] deals with T1, MdxE. Description: ANS fluorescence determination of protein surface hydrophobicity (Ho) of MdxE-ligand complexes. Also on record: species or system Thermoanaerobacter mathranii subsp. mathranii A3. The settings on record: for Ho (protein surface hydrophobicity, slope of RFU versus MdxE concentration): MdxE 2–14 µM, 350 µM ligand, 20 µM ANS, λmax = 485 nm, letters = Tukey groups (p < 0.05). Here is the method: To evaluate the switching from an open to a closed form of productive MdxE-ligand complexes obtained with the sugars listed in Table 1, changes in the protein surface hydrophobicity (Ho) of MdxE-ligand complexes using the fluorescent probe 8-anilinonaphthalene-1-sulfonate (ANS) were determined (Figure 4).
The changes in H0 associated with the open-to-closed conformational changes of productive MdxE-ligand complexes were determined based on the method described previously, using a Nanodrop ND-3300 fluorospectrometer (Thermo Fisher, Waltham, MA, USA) controlled by ND-3300 v2.8.0 software with ANS as a fluorescence probe at an excitation wavelength of 365 nm and 400–600 nm as the range for emission scan. The fluorescent response was measured in RFU using buffer C for all solutions. […] For H0 measurements, MdxE-ligand complexes were heated at 55 °C for 10 min. Subsequently, ANS was added to form the (MdxE-ligand)-ANS complexes, and the solutions were heated again at 55 °C for 3 min; then, the solutions were cooled to room temperature. Data were analyzed in triplicate (n = 3), and H0 was estimated as the slope of the linear curve fitted for RFU versus MdxE concentrations plotted at the maximum emission wavelength (λ = 485 nm) using the emtrends() function from emmeans package in R [58, 59]. A Tukey’s test (α = 0.05) for multiple comparisons was performed to determine significant differences in H0 between CDs and linear dextrins tested. All fluorescence measurements were made at 22 °C.

For the next test, the target named is TvuCMBP. Also noted: method as in PMID 17371546. The note with it: ND = not detected; cited from earlier work.
The target of another test is EcoMBP. The settings on record: cited from earlier work.
A further test deals with AcyMBP. Also noted: method as in PMID 11053372. The settings on record: cited from earlier work.
Another test has as its target CymE. Also on record: method as in PMID 9573146. The note with it: ND = not detected; cited from earlier work.
The mark [3] stands for this setting: ITC, 55 °C, 4 μM MdxE titrated with 0.8 mM ligand, single binding site model, n = 3, ND = not detected, read-out: Kd MdxE.

T1 sequence (A0ABM5LRQ5 entry or part of it): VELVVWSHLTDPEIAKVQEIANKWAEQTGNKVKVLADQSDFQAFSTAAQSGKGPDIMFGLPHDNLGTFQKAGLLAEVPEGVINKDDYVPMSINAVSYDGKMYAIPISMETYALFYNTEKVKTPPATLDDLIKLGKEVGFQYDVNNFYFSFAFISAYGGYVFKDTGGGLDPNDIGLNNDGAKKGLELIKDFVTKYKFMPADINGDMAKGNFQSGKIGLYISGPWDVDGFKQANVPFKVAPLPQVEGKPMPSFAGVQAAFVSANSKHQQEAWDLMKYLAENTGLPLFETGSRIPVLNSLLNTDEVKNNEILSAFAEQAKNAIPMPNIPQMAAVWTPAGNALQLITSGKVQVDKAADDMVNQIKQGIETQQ

The Kd is the constant that tells how readily two partners part at equilibrium. Consider `OC[C@H]1O[C@H](O[C@H]2[C@H](O)[C@@H](O)C(O)O[C@@H]2CO)[C@H](O)[C@@H](O)[C@@H]1O` (mixture of isomers) [G2, maltose], for which the “Kd MdxE” value on MdxE [1] (ITC, 55 °C, 4 μM MdxE titrated with 0.8 mM ligand, single binding site model, n = 3, ND = not detected) is “no binding interaction was observed”. Further, on MdxE [2], the “Ho (protein surface hydrophobicity, slope of RFU versus MdxE concentration)” value is 15.1 ^d. On MdxE [2] (fluorescence analysis with ANS), the “MdxE-ligand complex formation by fluorescence measurements” value is recorded as “no MdxE-G2 complex formation was observed”. Further, the results for the dissociation constant (Kd) on TvuCMBP, at EcoMBP and on AcyMBP were 410 nM, 1000 nM and 1500 nM, respectively.

On to `OC[C@H]1O[C@H](O[C@H]2[C@H](O)[C@@H](O)[C@@H](O[C@H]3[C@H](O)[C@@H](O)C(O)O[C@@H]3CO)O[C@@H]2CO)[C@H](O)[C@@H](O)[C@@H]1O` (mixture of isomers) [G3, maltotriose], for which the dissociation constant (Kd) on MdxE [1] (setting [3]) was 3020 nM; at TvuCMBP it was 970 nM; at EcoMBP, 200 nM. In addition, the ΔG on MdxE [1] (ITC, 55 °C, ND = not detected) is -8.50 kcal/mol. Further, the ΔH on MdxE [1] (ITC, 55 °C, ND = not detected) is -8.64 kcal/mol. For the same compound, the “Ho (protein surface hydrophobicity, slope of RFU versus MdxE concentration)” value on MdxE [2] is listed as 24.3 ^c.

With `OC[C@H]1O[C@@H]2O[C@H]3[C@H](O)[C@@H](O)[C@@H](O[C@H]4[C@H](O)[C@@H](O)[C@@H](O[C@H]5[C@H](O)[C@@H](O)[C@@H](O[C@H]6[C@H](O)[C@@H](O)[C@@H](O[C@H]7[C@H](O)[C@@H](O)[C@@H](O[C@H]1[C@H](O)[C@H]2O)O[C@@H]7CO)O[C@@H]6CO)O[C@@H]5CO)O[C@@H]4CO)O[C@@H]3CO` [α-CD], the Kd on MdxE [1] was 610 nM; on TvuCMBP it was 730 nM; on CymE, 20 nM. Moreover, the ΔH on MdxE [1] (ITC, 55 °C, ND = not detected) was -6.83 kcal/mol. Also, the “Ho (protein surface hydrophobicity, slope of RFU versus MdxE concentration)” value on MdxE [2] is recorded as 37.1 ^a. Besides, the “open-to-closed conformational change of MdxE” value at MdxE [2] (fluorescence analysis with ANS) was “solely triggered”.

Consider `OC[C@H]1O[C@@H]2O[C@H]3[C@H](O)[C@@H](O)[C@@H](O[C@H]4[C@H](O)[C@@H](O)[C@@H](O[C@H]5[C@H](O)[C@@H](O)[C@@H](O[C@H]6[C@H](O)[C@@H](O)[C@@H](O[C@H]7[C@H](O)[C@@H](O)[C@@H](O[C@H]8[C@H](O)[C@@H](O)[C@@H](O[C@H]1[C@H](O)[C@H]2O)O[C@@H]8CO)O[C@@H]7CO)O[C@@H]6CO)O[C@@H]5CO)O[C@@H]4CO)O[C@@H]3CO` [β-CD], for which the Kd at MdxE [1] (setting [3]) was 2040 nM; on TvuCMBP, 1200 nM; on EcoMBP it was 1000 nM; on CymE, 140 nM. Besides, on MdxE [1] (ITC, 55 °C, ND = not detected), the ΔH is -5.28 kcal/mol. For the same compound, the “Ho (protein surface hydrophobicity, slope of RFU versus MdxE concentration)” value at MdxE [2] is recorded as 41.8 ^b. At MdxE [2] (fluorescence analysis with ANS), the “open-to-closed conformational change of MdxE” value was “solely triggered”.

As for `OC[C@H]1O[C@@H]2O[C@H]3[C@H](O)[C@@H](O)[C@@H](O[C@H]4[C@H](O)[C@@H](O)[C@@H](O[C@H]5[C@H](O)[C@@H](O)[C@@H](O[C@H]6[C@H](O)[C@@H](O)[C@@H](O[C@H]7[C@H](O)[C@@H](O)[C@@H](O[C@H]8[C@H](O)[C@@H](O)[C@@H](O[C@H]9[C@H](O)[C@@H](O)[C@@H](O[C@H]1[C@H](O)[C@H]2O)O[C@@H]9CO)O[C@@H]8CO)O[C@@H]7CO)O[C@@H]6CO)O[C@@H]5CO)O[C@@H]4CO)O[C@@H]3CO` [γ-CD], the dissociation constant (Kd) on MdxE [1] (setting [3]) was 1510 nM; at TvuCMBP it was 230 nM; at CymE, 300 nM. The same compound showed a ΔH at MdxE [1] (ITC, 55 °C, ND = not detected) of -6.50 kcal/mol. In addition, the “Ho (protein surface hydrophobicity, slope of RFU versus MdxE concentration)” value at MdxE [2] is recorded as 24.5 ^c.

Take maltoheptaose [G7]: the results for the dissociation constant Kd at MdxE [1] (setting [3]) and at CymE were 910 nM and 70000 nM, respectively. For the same compound, the ΔG at MdxE [1] (ITC, 55 °C, ND = not detected) is -9.09 kcal/mol. At MdxE [1] (ITC, 55 °C, ND = not detected), this compound returned a ΔH of -11.54 kcal/mol. Further, the “Ho (protein surface hydrophobicity, slope of RFU versus MdxE concentration)” value on MdxE [2] is recorded as 27.1 ^c.

Regarding maltohexaose [G6], at MdxE [1] (setting [3]), the Kd is 1850 nM. Further, on MdxE [1] (ITC, 55 °C, ND = not detected), the ΔG was -8.61 kcal/mol and the ΔH is -12.98 kcal/mol. Also, the “Ho (protein surface hydrophobicity, slope of RFU versus MdxE concentration)” value at MdxE [2] is given as 26.8 ^c.

On to maltopentaose [G5], for which the Kd on MdxE [1] (setting [3]) turned out to be 2440 nM. At MdxE [1] (ITC, 55 °C, ND = not detected), this compound registered a ΔG of -8.30 kcal/mol and a ΔH of -13.94 kcal/mol. Further, the “Ho (protein surface hydrophobicity, slope of RFU versus MdxE concentration)” value on MdxE [2] is listed as 27.3 ^c. Also, the Kd at TvuCMBP is 200 nM.
